Laboratory results published in patent US9023889B2, “Use of ascorbic acid derivatives for the functionalization of matrices” (Merck Patent GmbH, priority 2006, dated 2015).

What was measured:
pig skin = experiment: Evidence of bonding to pig skin; settings: pig skin 24 h
Method: • 2% solution of DHAB in Arlasolve DMI sample (A) and Pelemol BIP sample (B) • formulation containing 1% of DHAB sample (C) [=54-07-5-A, from Example V] • 2% solution of DHHB in Arlasolve DMI sample (D) and isopropyl myristate sample (E) formulations containing 0.84% of DHHB sample (F) [=54-07-5-B from Example V] and 0.84% of DHHB+0.37% of vitamin C sample (G) [=54-07-5-C from Example V]. • pig skin is cut to 2.5×7.5 cm and placed on Plexiglas specimen slides. Procedure:
50 µl of each of samples (A) to (G) are dripped onto the specimen slides with pig skin, spread using a plastic spatula, and the specimen slides are stored in a desiccator [87% atmospheric humidity through sat. KCl solution] at room temperature for 24 h. The specimen slides are then rinsed with 50 ml of isopropanol into volumetric flasks, treated in an ultrasound bath for 5 min, clear-filtered via syringe filters (cloudiness due to detached skin constituents and measured by UV spectrometer (400-250 nm; UVmax˜355 nm) (residue 1 to 7). The 100% comparative value used are 50 ml isopropanol solutions of in each case 50 µl of samples (A) to (G), which are likewise measured by UV spectrometer.

chicken skin = experiment: Evidence of bonding to chicken skin; settings: 2% in dimethylisosorbide, 2.66 μl/cm^2, exposure 16 hours, isopropanol extraction, photometric at 354 nm
Method: A) DHAB is dissolved to the extent of 2% in dimethylisosorbide. The solution is applied to chicken skin at an application rate of 2.66 μl/cm^2. After an exposure time of 16 hours, the samples are extracted with isopropanol in an ultrasound bath. The extracts are measured photometrically at 354 nm and compared with a 100% value (=application solution without use). The difference in the recovery compared with the 100% value corresponds here to the proportion of active compound bonded to the skin. For DHAB, a bound proportion of 76% is found, while the non-bonding comparative substance DHHB has, as expected, a low value of only 3%.

prolyl-4-hydroxylase = settings: cited from earlier work
gelatine plates = experiment: Evidence of bonding (skin model), gelatine plates; settings: 24 hrs at 87% atmospheric humidity, eluted with iPrOH in ultrasound bath
Method: 4% solutions of a mixture of two isomers of 2-(3,4-dihydroxy-5-oxo-2,5-di-hydrofuran-2-yl)-2-hydroxyethyl 2-(4-diethylamino-2-hydroxybenzoyl)benzo-ate, prepared in accordance with Example 1 or 2, abbreviated to DHAB below, in various solvent systems are prepared. 40 µl of each of these are applied to 2.5×7.5 cm gelatine plates and stored at 87% atmospheric humidity for 24 hrs. The plates are then eluted with 50 ml of iPrOH in an ultrasound bath for 5 min. The bonding to the gelatine is carried out by comparison with a corresponding standard solution: […]

Human hair samples = experiment: Evidence of bonding to hair (SEM); settings: 0.2% solution in ethanol/water=80/20, 8 h, rinsed; comparison with DHHB
Method: Human hair samples are stirred with a 0.2% ethanolic active-compound solution of DHAB or DHHB (ethanol/water=80/20) for 8 h, subsequently rinsed with ethanol/water=80/20 and sent for SEM measurement (SEM=scanning electron microscope).

CCCCCCOC(=O)c1ccccc1C(=O)c1ccc(N(CC)CC)cc1O [DHHB, hexyl 2-(4-diethylamino-2-hydroxybenzoyl)benzoate]
Bonding (non-extractable residue) (pig skin; 0.84% in W/O 54-07-5-B): 5%
Bonding (non-extractable residue) (pig skin; 2% in Arlasolve DMI): 0%
Bonding (non-extractable residue) (pig skin; 2% in isopropyl myristate): 2%
bound proportion (proportion of active compound bonded to the skin) (chicken skin): 3%

CC(=O)Oc1ccccc1C(=O)OC[C@H](O)[C@H]1OC(=O)C(O)=C1O [O^6-(2-acetoxybenzoyl) L-ascorbate]
supporting the activity of the enzyme prolyl-4-hydroxylase (prolyl-4-hydroxylase): capable of supporting the activity

CC(=O)Oc1ccccc1C(=O)OC[C@H](OC(=O)c1ccccc1OC(C)=O)[C@H]1OC(=O)C(O)=C1O [O^5O^6-bis(2-acetoxybenzoyl) L-ascorbate]
supporting the activity of the enzyme prolyl-4-hydroxylase (prolyl-4-hydroxylase): capable of supporting the activity
affinity to the enzyme (prolyl-4-hydroxylase; compared with the monosubstituted compound): lower affinity

CCN(CC)c1ccc(C(=O)c2ccccc2C(=O)OC[C@@H](O)[C@H]2OC(=O)C(O)=C2O)c(O)c1 [DHAB, (R)-2-((R)-3,4-dihydroxy-5-oxo-2,5-dihydrofuran-2-yl)-2-hydroxyethyl 2-(4-diethylamino-2-hydroxybenzoyl)benzoate]
Bonding (non-extractable residue) (pig skin; 1% in W/O 54-07-5-A): 91%
Bonding (non-extractable residue) (pig skin; 2% in Arlasolve DMI): 97%
Bonding (non-extractable residue) (pig skin; 2% in Pelemol BIP): 89%
Non-extractable content and therefore bonded to the skin (gelatine plates; 4% solution in EG/water 94/6 on gelatine plate): 97.0%
Non-extractable content and therefore bonded to the skin (gelatine plates; 4% solution in i-PrOH on gelatine plate): 12.5%
bound proportion (proportion of active compound bonded to the skin) (chicken skin): 76%
active-compound adduction onto the hair cuticles (SEM picture) (Human hair samples): clearly increasingly evident
